The structures appear in SMILES notation. Structures can show the parent of a compound that is named as a salt.

The target of one test is Cbl-b (Homo sapiens (Human), UniProt Q13191). Nature of the test: Cbl-b LCK Ub TR-FRET assay (Cbl-b Lck HTRF). Format: biochemical. In outline: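 TR-FRET (340 nm excitation, 615/665 nm emission) read after adding HA-ubiquitin–UBE2D2 thioester, anti-HA-D2 and streptavidin-Eu. Beforehand, compounds incubated 60 min with biotinylated Cbl-b, then 90 min with His-LCK and ATP (1 mM in 2× mix); IC50 from 10 concentrations, DMSO high and no-LCK low controls.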
A general note: Time-resolved FRET reads energy transfer from a long-lived donor to a nearby acceptor.

The next test addresses c-Cbl (Homo sapiens (Human), UniProt P22681). Nature of the test: C-Cbl LCK Ub TR-FRET assay (c-cbl Lck HTRF). Format: biochemical. As to conditions: for (fold-selectivity): C-cbl Lck HTRF IC50 relative to Cbl-b Lck HTRF IC50. In outline: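 After the ubiquitination reaction, detection mixture was added and plates incubated 20 min at room temperature before reading. IC50 values were calculated with wells lacking LCK as the low control and DMSO as the high control.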

Sequence of c-Cbl (P22681 47-435): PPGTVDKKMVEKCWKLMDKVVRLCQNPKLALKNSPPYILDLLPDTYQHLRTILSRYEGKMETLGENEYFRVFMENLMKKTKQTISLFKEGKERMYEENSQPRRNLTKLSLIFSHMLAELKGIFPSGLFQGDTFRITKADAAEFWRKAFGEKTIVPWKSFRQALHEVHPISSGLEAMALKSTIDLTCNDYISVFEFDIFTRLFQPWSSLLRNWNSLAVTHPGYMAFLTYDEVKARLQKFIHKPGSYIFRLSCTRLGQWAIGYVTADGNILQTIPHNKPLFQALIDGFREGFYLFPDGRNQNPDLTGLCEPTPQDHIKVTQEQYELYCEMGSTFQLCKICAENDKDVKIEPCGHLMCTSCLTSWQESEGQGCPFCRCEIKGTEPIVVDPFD
Sequence of Cbl-b (Q13191 40-426): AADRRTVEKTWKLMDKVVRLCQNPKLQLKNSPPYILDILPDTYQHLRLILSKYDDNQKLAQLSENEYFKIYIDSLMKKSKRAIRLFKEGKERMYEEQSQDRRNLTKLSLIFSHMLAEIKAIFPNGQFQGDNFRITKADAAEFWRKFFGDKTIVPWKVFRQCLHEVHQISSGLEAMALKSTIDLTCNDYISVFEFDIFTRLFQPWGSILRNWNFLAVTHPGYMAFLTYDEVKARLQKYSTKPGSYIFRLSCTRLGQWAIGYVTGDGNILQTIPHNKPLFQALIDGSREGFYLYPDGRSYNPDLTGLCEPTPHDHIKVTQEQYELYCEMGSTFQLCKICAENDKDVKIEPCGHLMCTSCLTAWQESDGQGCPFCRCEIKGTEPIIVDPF

With `CNc1cc(C2(Cc3nncn3C)CCC2)cc(N2Cc3c(cc(CNC4(C)CCC4)cc3C(F)(F)F)C2=O)n1` [Compound 310, 2-(4-(1-((4-methyl-4H-1,2,4-triazol-3-yl)methyl)cyclobutyl)-6-(methylamino)pyridin-2-yl)-6-(((1-methylcyclobutyl)amino)methyl)-4-(trifluoromethyl)isoindolin-1-one formate], the values for the concentration for half-maximal inhibition (IC50) at Cbl-b and on c-Cbl were 10 nM and 11 nM, respectively.

In the case of `CCNc1cc(C2(Cc3nncn3C)CC(F)(F)C2)cc(N2Cc3c(cc(CN4CCN(C)C[C@@H]4C(C)C)cc3C(F)(F)F)C2=O)n1` [Compound 236, (S)-2-(4-(3,3-difluoro-1-((4-methyl-4H-1,2,4-triazol-3-yl)methyl)-cyclobutyl)-6-(ethylamino)pyridin-2-yl)-6-((2-isopropyl-4-methylpiperazin-1-yl)methyl)-4-(trifluoromethyl)isoindolin-1-one formate], the IC50 at Cbl-b stood at 7.1 nM; at c-Cbl, 8 nM.

As to `Cc1cccc2c1CN(c1cccc(C3([C@@H](F)c4nncn4C)COC3)c1)C2=O` [Compound 208, (R)-2-(3-(3-(fluoro(4-methyl-4H-1,2,4-triazol-3-yl)methyl)oxetan-3-yl)phenyl)-4-methylisoindolin-1-one], the half-inhibitory concentration (IC50) against Cbl-b amounted to 1400 nM. At c-Cbl, the IC50 came to 2100 nM and the “(fold-selectivity)” value is recorded as 1.5x.

For `CC[C@@H]1CC[C@H](c2cc3c(c(C(F)(F)F)c2)CN(c2cccc(C4(Cc5nncn5C)CC(F)(F)C4)c2)C3=O)N1` [Compound 476, 2-(3-(3,3-difluoro-1-((4-methyl-4H-1,2,4-triazol-3-yl)methyl)cyclobutyl)phenyl)-6-((2R,5R)-5-ethylpyrrolidin-2-yl)-4-(trifluoromethyl)isoindolin-1-one], at Cbl-b, inhibition was half-maximal at 47 nM (IC50). Also, on c-Cbl, half-maximal inhibition (IC50) was put at 39 nM and the “(fold-selectivity)” value was “(0.83x)”.

As to `Cn1cnnc1[C@H](F)C1(c2cccc(N3Cc4c(cc(CN5CCC6(CC6)C5)cc4C(F)(F)F)C3=O)c2)CC1` [Compound 27, (R)-6-(5-azaspiro[2.4]heptan-5-ylmethyl)-2-(3-(1-(fluoro(4-methyl-4H-1,2,4-triazol-3-yl)methyl)cyclopropyl)phenyl)-4-(trifluoromethyl)isoindolin-1-one], the figures for the IC50 at Cbl-b and against c-Cbl were 39 nM and 61 nM, respectively.

In the case of `CC(C)[C@H]1CNCCN1Cc1cc2c(c(C(F)(F)F)c1)CN(c1cccc(C3([C@@H](F)c4nncn4C)CCC3)c1)C2=O` [Compound 216, 2-(3-(1-((R)-fluoro(4-methyl-4H-1,2,4-triazol-3-yl)methyl)cyclobutyl)phenyl)-6-(((S)-2-isopropylpiperazin-1-yl)methyl)-4-(trifluoromethyl)isoindolin-1-one], 8 nM corresponded to half-maximal inhibition against Cbl-b (IC50). Besides, at c-Cbl, the IC50 came out at 4.8 nM and the “(fold-selectivity)” value is on record as 0.60x.

Take `Cn1cnnc1CC1(c2cccc(N3Cc4c(cc(CN5CCC[C@@](C)(O)C5)cc4C(F)(F)F)C3=O)c2)CC(F)(F)C1` [Compound 441, (R)-2-(3-(3,3-difluoro-1-((4-methyl-4H-1,2,4-triazol-3-yl)methyl)cyclobutyl)phenyl)-6-((3-hydroxy-3-methylpiperidin-1-yl)methyl)-4-(trifluoromethyl)isoindolin-1-one]: at Cbl-b, half-maximal inhibition (IC50) required 42 nM. Also, on c-Cbl, 23 nM corresponded to half-maximal inhibition (IC50) and the “(fold-selectivity)” value is “(0.56x)”.

As to `COCC1(F)CN(Cc2cc3c(c(C(F)(F)F)c2)CN(c2cccc(C4([C@@H](F)c5nncn5C)COC4)c2)C3=O)C1` [Compound 135, (R)-2-(3-(3-(fluoro(4-methyl-4H-1,2,4-triazol-3-yl)methyl)oxetan-3-yl)phenyl)-6-((3-fluoro-3-(methoxymethyl)azetidin-1-yl)methyl)-4-(trifluoromethyl)isoindolin-1-one], the IC50 was 96 nM against Cbl-b and 180 nM against c-Cbl. Moreover, the “(fold-selectivity)” value at c-Cbl is recorded as 1.9x.

`C[C@H](N)c1cc2c(c(C(F)(F)F)c1)CN(c1cccc(C3(Cc4nncn4C)CC(F)(F)C3)c1)C2=O` [Compound 384, (S)-6-(1-aminoethyl)-2-(3-(3,3-difluoro-1-((4-methyl-4H-1,2,4-triazol-3-yl)methyl)cyclobutyl)phenyl)-4-(trifluoromethyl)isoindolin-1-one]: the IC50 at Cbl-b is 22 nM; against c-Cbl, 25 nM. For the same compound, the “(fold-selectivity)” value on c-Cbl was “(1.1x)”.

`Cn1cnnc1[C@H](F)C1(c2cccc(N3Cc4c(cc(CN5CC6(CCC6)C5)cc4C(F)(F)F)C3=O)c2)COC1` [Compound 165, (R)-6-(2-azaspiro[3.3]heptan-2-ylmethyl)-2-(3-(3-(fluoro(4-methyl-4H-1,2,4-triazol-3-yl)methyl)oxetan-3-yl)phenyl)-4-(trifluoromethyl)isoindolin-1-one]: the midpoint of inhibition at Cbl-b, the IC50, lay at 35 nM. For the same compound, at c-Cbl, the 50% inhibitory concentration (IC50) was 73 nM and the “(fold-selectivity)” value is listed as 2.1x.

Regarding `CC(C)[C@H]1CN(CCF)CCN1Cc1cc2c(c(C(F)(F)F)c1)CN(c1cccc(C3([C@@H](F)c4nncn4C)COC3)c1)C2=O` [Compound 197, 2-(3-(3-((R)-fluoro(4-methyl-4H-1,2,4-triazol-3-yl)methyl)oxetan-3-yl)phenyl)-6-(((S)-4-(2-fluoroethyl)-2-isopropylpiperazin-1-yl)methyl)-4-(trifluoromethyl)isoindolin-1-one], half-maximal inhibition on Cbl-b (IC50) required 8 nM. Moreover, on c-Cbl, the IC50 turned out to be 13 nM and the “(fold-selectivity)” value stood at 1.6x.

`CCCNCc1cc2c(c(C(F)(F)F)c1)CN(c1cc(NCC)cc(C3(Cc4nncn4C)CCC3)c1)C2=O` [Compound 458, 2-(3-(ethylamino)-5-(1-((4-methyl-4H-1,2,4-triazol-3-yl)methyl)cyclobutyl)phenyl)-6-((propylamino)methyl)-4-(trifluoromethyl)isoindolin-1-one] came in with a concentration for half-maximal inhibition (IC50) against Cbl-b of 23 nM. Also, at c-Cbl, the IC50 is 15 nM and the “(fold-selectivity)” value was “(0.66x)”.

For the compound `Cn1cnnc1[C@@H](F)C1(c2cccc(N3Cc4c(cc(CN5CCC[C@H](CO)C5)cc4C(F)(F)F)C3=O)c2)COC1` [Compound 144, 2-(3-(3-((S)-fluoro(4-methyl-4H-1,2,4-triazol-3-yl)methyl)oxetan-3-yl)phenyl)-6-(((S)-3-(hydroxymethyl)piperidin-1-yl)methyl)-4-(trifluoromethyl)isoindolin-1-one], it took 72 nM to reach half-maximal inhibition against Cbl-b (IC50). Besides, on c-Cbl, the half-inhibitory concentration (IC50) worked out at 66 nM and the “(fold-selectivity)” value was 0.91x.

With `CC[C@H](C)NCc1cc2c(c(C(F)(F)F)c1)CN(c1cccc(C3(Cc4nncn4C)CC(F)(F)C3)c1)C2=O` [Compound 371, (S)-6-((sec-butylamino)methyl)-2-(3-(3,3-difluoro-1-((4-methyl-4H-1,2,4-triazol-3-yl)methyl)cyclobutyl)phenyl)-4-(trifluoromethyl)isoindolin-1-one], the IC50 on Cbl-b is 15 nM. Besides, at c-Cbl, the IC50 was 14 nM and the “(fold-selectivity)” value was “(0.94x)”.

On Cbl-b, `C[C@H]1CN(Cc2cc3c(c(C(F)(F)F)c2)CN(c2cccc(C4([C@@H](F)c5nncn5C)COC4)c2)C3=O)CCCO1` [Compound 118, 2-(3-(3-((R)-fluoro(4-methyl-4H-1,2,4-triazol-3-yl)methyl)oxetan-3-yl)phenyl)-6-(((S)-2-methyl-1,4-oxazepan-4-yl)methyl)-4-(trifluoromethyl)isoindolin-1-one] showed a half-maximal inhibitory concentration (IC50) of 7 nM. Further, at c-Cbl, the IC50 was found to be 8 nM and the “(fold-selectivity)” value is listed as 1.1x.

Compound `COC1(C)CN(Cc2cc3c(c(C(F)(F)F)c2)CN(c2cccc(C4([C@H](F)c5nncn5C)COC4)c2)C3=O)C1` [Compound 180, (S)-2-(3-(3-(fluoro(4-methyl-4H-1,2,4-triazol-3-yl)methyl)oxetan-3-yl)phenyl)-6-((3-methoxy-3-methylazetidin-1-yl)methyl)-4-(trifluoromethyl)isoindolin-1-one] displayed a concentration for half-maximal inhibition (IC50) at Cbl-b of 220 nM. For the same compound, on c-Cbl, half-maximal inhibition (IC50) required 430 nM and the “(fold-selectivity)” value is listed as 1.9x.

`CC(C)CNc1cc(C2(Cc3nncn3C)CCC2)cc(N2Cc3c(cc(CNC4(C)CCC4)cc3C(F)(F)F)C2=O)n1` [Compound 348, 2-(6-(isobutylamino)-4-(1-((4-methyl-4H-1,2,4-triazol-3-yl)methyl)cyclobutyl)pyridin-2-yl)-6-(((1-methylcyclobutyl)amino)methyl)-4-(trifluoromethyl)isoindolin-1-one] had an IC50 against Cbl-b of 13 nM. Moreover, at c-Cbl, inhibition was half-maximal at 13 nM (IC50) and the “(fold-selectivity)” value is recorded as “(1.0x)”.

As for `CC(C)[C@H]1CN(CCF)CCN1Cc1cc2c(c(C(F)(F)F)c1)CN(c1cccc(C3([C@H](F)c4nncn4C)COC3)c1)C2=O` [Compound 198, 2-(3-(3-((S)-fluoro(4-methyl-4H-1,2,4-triazol-3-yl)methyl)oxetan-3-yl)phenyl)-6-(((S)-4-(2-fluoroethyl)-2-isopropylpiperazin-1-yl)methyl)-4-(trifluoromethyl)isoindolin-1-one], the half-inhibitory concentration (IC50) on Cbl-b was 14 nM. Besides, on c-Cbl, 21 nM corresponded to half-maximal inhibition (IC50) and the “(fold-selectivity)” value was 1.5x.

For the compound `COC[C@@H]1CCCN1Cc1cc2c(c(C(F)(F)F)c1)CN(c1cccc(C3([C@@H](F)c4nncn4C)COC3)c1)C2=O` [Compound 159, 2-(3-(3-((R)-fluoro(4-methyl-4H-1,2,4-triazol-3-yl)methyl)oxetan-3-yl)phenyl)-6-(((S)-2-(methoxymethyl)pyrrolidin-1-yl)methyl)-4-(trifluoromethyl)isoindolin-1-one], at Cbl-b, the IC50 was found to be 350 nM. Further, on c-Cbl, the midpoint of inhibition, the IC50, lay at 1200 nM and the “(fold-selectivity)” value amounted to 3.4x.

For the compound `CCC1(NCc2cc3c(c(C(F)(F)F)c2)CN(c2cccc(C4(Cc5nncn5C)CC(F)(F)C4)c2)C3=O)CCC1` [Compound 369, 2-(3-(3,3-difluoro-1-((4-methyl-4H-1,2,4-triazol-3-yl)methyl)cyclobutyl)phenyl)-6-(((1-ethylcyclobutyl)amino)methyl)-4-(trifluoromethyl)isoindolin-1-one formate], the IC50 against Cbl-b was determined as 17 nM; against c-Cbl, 15 nM.

The IC50 is the concentration at which inhibition is half-maximal. Low values mean inhibition by little substance, high ones a need for much substance.

The values above are taken from US20250230147A1, “LACTAMS AS CBL-B INHIBITORS” (Genentech, Inc., priority 2021, published 2025).
